For one test, the system named is ob/ob and db/db mice. To be noted: 8 day AICAR administration; cited from earlier work.
For the next test, the system named is AMPK. In words: AMPK enzyme activity assay (Delfia technology, AMARA peptide substrate). The format is biochemical. To be noted: compound at 30 μM vs AMP at 200 μM. Summed up: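 Value is the ratio of compound (30 μM) to AMP (200 μM) response, each as % of basal control. Phosphorylation of the AMARA peptide after AMPK addition was read by Delfia with an anti-phosphoserine antibody.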

In the case of `NC(=O)c1ncn([C@@H]2O[C@H](CO)[C@@H](O)[C@H]2O)c1N` [AICAR], in the test with ob/ob and db/db mice, the reduces blood glucose is 35%. On to `O=C1Nc2sc(Cl)c(-c3ccc(F)cc3O)c2C(=O)C1(Cl)c1ccccc1` (stereo not drawn) [No 216, 2,5-dichloro-3-(4-fluoro-2-hydroxy-phenyl)-5-phenyl-7H-thieno[2,3-b]pyridine-4,6-dione], for which, in the test with AMPK, the “Activity: Ratio between the % of control (basal activity) of compound of formula (1) at 30 μM and the % of control (basal activity) of AMP (natural substrate) at 200 μM” value (shortened to “Activity: Ratio between the % of control”) is on record as “C (C≧75%)”. In the case of `Cc1ccc(-c2c(Cl)sc3c2C(=O)C(F)(c2cccc(C#N)c2)C(=O)N3)cc1C` (stereo not drawn) [No 217, 3-[2-chloro-3-(3,4-dimethylphenyl)-5-fluoro-4,6-dioxo-7H-thieno[2,3-b]pyridin-5-yl]benzonitrile], the “Activity: Ratio between the % of control” value in the test on AMPK is reported as “C (C≧75%)”. The same measure, in the same setting: as for `CS(=O)(=O)c1ccc(C2(F)C(=O)Nc3sc(Cl)c(-c4ccc(F)cc4O)c3C2=O)cc1` (stereo not drawn) [No 218, 2-chloro-5-fluoro-3-(4-fluoro-2-hydroxy-phenyl)-5-(4-methylsulfonylphenyl)-7H-thieno[2,3-b]pyridine-4,6-dione], the entry is “C (C≧75%)”. The same measure, in the same setting: as for `COc1ccc(C2(F)C(=O)Nc3sc(Cl)c(-c4ccc(F)cc4O)c3C2=O)cc1OC` (stereo not drawn) [No 219, 2-chloro-5-(3,4-dimethoxyphenyl)-5-fluoro-3-(4-fluoro-2-hydroxy-phenyl)-7H-thieno[2,3-b]pyridine-4,6-dione], the entry is “C (C≧75%)”. Still for that read-out and setting: the value for `Cc1sc2c(c1-c1ccc(F)cc1O)C(=O)C(F)(c1ccccc1)C(=O)N2` (stereo not drawn) [No 220, 5-fluoro-3-(4-fluoro-2-hydroxy-phenyl)-2-methyl-5-phenyl-7H-thieno[2,3-b]pyridine-4,6-dione] was “B (50%≦B<75%)”; that for `O=C1Nc2sc(Cl)c(-c3ccccc3)c2C(=O)C1(Cl)c1ccccc1` (stereo not drawn) [No 222, 2,5-dichloro-3,5-diphenyl-7H-thieno[2,3-b]pyridine-4,6-dione] was “C (C≧75%)”.

Regarding `CCc1ccc(-c2c(Cl)sc3c2C(=O)C(F)(c2ccccc2)C(=O)N3)c(O)c1` (stereo not drawn) [No 223, 2-chloro-3-(4-ethyl-2-hydroxy-phenyl)-5-fluoro-5-phenyl-7H-thieno[2,3-b]pyridine-4,6-dione], the “Activity: Ratio between the % of control” value in the test on AMPK is reported as “C (C≧75%)”. The same measure, in the same setting: the value for `N#Cc1cccc(C2(F)C(=O)Nc3sc(Cl)c(-c4ccc(F)cc4O)c3C2=O)c1` (stereo not drawn) [No 224, 3-[2-chloro-5-fluoro-3-(4-fluoro-2-hydroxy-phenyl)-4,6-dioxo-7H-thieno[2,3-b]pyridin-5-yl]benzonitrile] was “C (C≧75%)”; that for `COc1ccc(C2(F)C(=O)Nc3sc(Cl)c(-c4ccc(F)cc4O)c3C2=O)cc1C` (stereo not drawn) [No 225, 2-chloro-5-fluoro-3-(4-fluoro-2-hydroxy-phenyl)-5-(4-methoxy-3-methyl-phenyl)-7H-thieno[2,3-b]pyridine-4,6-dione] was “C (C≧75%)”.

As to `O=C1Nc2sc(Cl)c(-c3ccc(F)cc3O)c2C(=O)C1(F)c1ccsc1` (stereo not drawn) [No 226, 2-chloro-5-fluoro-3-(4-fluoro-2-hydroxy-phenyl)-5-(3-thienyl)-7H-thieno[2,3-b]pyridine-4,6-dione], in the test with AMPK, the “Activity: Ratio between the % of control” value was “C (C≧75%)”. Still for that read-out and setting: the value for `COc1c(-c2c(Cl)sc3c2C(=O)C(F)(c2ccc(F)cc2)C(=O)N3)ccc(C)c1F` (stereo not drawn) [No 227, 2-chloro-5-fluoro-3-(3-fluoro-2-methoxy-4-methyl-phenyl)-5-(4-fluorophenyl)-7H-thieno[2,3-b]pyridine-4,6-dione] was “B (50%≦B<75%)”. Regarding `Cc1ccc(-c2c(Cl)sc3c2C(=O)C(F)(c2ccc(F)cc2)C(=O)N3)c(O)c1F` (stereo not drawn) [No 228, 2-chloro-5-fluoro-3-(3-fluoro-2-hydroxy-4-methyl-phenyl)-5-(4-fluorophenyl)-7H-thieno[2,3-b]pyridine-4,6-dione], the “Activity: Ratio between the % of control” value in the test with AMPK is reported as “C (C≧75%)”. On the same count and under the same terms, the value for `COc1c(-c2c(Cl)sc3c2C(=O)C(F)(c2ccccc2)C(=O)N3)ccc(F)c1C` (stereo not drawn) [No 229, 2-chloro-5-fluoro-3-(4-fluoro-2-methoxy-3-methyl-phenyl)-5-phenyl-7H-thieno[2,3-b]pyridine-4,6-dione] was “A (0%<A<50%)”.

As for `COc1c(-c2c(Cl)sc3c2C(=O)C(F)(c2ccccc2)C(=O)N3)ccc(C)c1F` (stereo not drawn) [No 230, 2-chloro-5-fluoro-3-(3-fluoro-2-methoxy-4-methyl-phenyl)-5-phenyl-7H-thieno[2,3-b]pyridine-4,6-dione], the “Activity: Ratio between the % of control” value in the test with AMPK is on record as “A (0%<A<50%)”. Same read-out and setting: the value for `COC1(c2ccccc2)C(=O)Nc2sc(Cl)c(-c3ccc(F)cc3O)c2C1=O` (stereo not drawn) [No 231, 2-chloro-3-(4-fluoro-2-hydroxy-phenyl)-5-methoxy-5-phenyl-7H-thieno[2,3-b]pyridine-4,6-dione] was “C (C≧75%)”. The same measure, in the same setting: as for `Cc1ccc(-c2c(Cl)sc3c2C(=O)C(Cl)(c2ccccc2)C(=O)N3)c(O)c1F` (stereo not drawn) [No 232, 2,5-dichloro-3-(3-fluoro-2-hydroxy-4-methyl-phenyl)-5-phenyl-7H-thieno[2,3-b]pyridine-4,6-dione], the entry is “C (C≧75%)”; as for `Cc1c(F)ccc(-c2c(Cl)sc3c2C(=O)C(Cl)(c2ccccc2)C(=O)N3)c1O` (stereo not drawn) [No 233, 2,5-dichloro-3-(4-fluoro-2-hydroxy-3-methyl-phenyl)-5-phenyl-7H-thieno[2,3-b]pyridine-4,6-dione], “C (C≧75%)”.

The values above are taken from patent publication US9365584B2, “Thieno [2,3-B] pyridinedione activators of AMPK and therapeutic uses thereof” (Poxel, priority 2009, dated 2016).
